This is an account of results in patent EP0551662A1, “Benzofuranyl- and thiophenylmethylthio-alcanecarboxylic acid derivatives” (BAYER AG, priority 1992, dated 1993).

One experiment deals with T1, NADPH oxidase (Homo sapiens, UniProt P04839).
T1 construct: endogenous in cells; host or cells: neutrophils, PMA-stimulated, sonicated; membrane fraction
T1 sequence (P04839 2-570 limits assumed): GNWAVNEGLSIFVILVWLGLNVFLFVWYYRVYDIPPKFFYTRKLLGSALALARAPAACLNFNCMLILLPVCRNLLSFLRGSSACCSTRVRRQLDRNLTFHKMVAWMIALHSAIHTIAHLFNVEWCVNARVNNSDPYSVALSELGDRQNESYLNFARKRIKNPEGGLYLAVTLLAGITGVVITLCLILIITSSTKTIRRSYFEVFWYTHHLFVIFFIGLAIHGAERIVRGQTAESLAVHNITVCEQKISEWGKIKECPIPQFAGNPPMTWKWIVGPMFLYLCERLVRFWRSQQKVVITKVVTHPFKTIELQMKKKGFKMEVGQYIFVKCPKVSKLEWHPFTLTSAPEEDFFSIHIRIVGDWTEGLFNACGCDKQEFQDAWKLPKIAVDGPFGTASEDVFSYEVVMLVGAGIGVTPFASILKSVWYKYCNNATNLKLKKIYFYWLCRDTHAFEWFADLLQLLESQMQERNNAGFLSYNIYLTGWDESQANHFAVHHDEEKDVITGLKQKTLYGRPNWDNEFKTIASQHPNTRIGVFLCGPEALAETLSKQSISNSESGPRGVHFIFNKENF
T1 sequence (P13498 2-195 partner limits assumed): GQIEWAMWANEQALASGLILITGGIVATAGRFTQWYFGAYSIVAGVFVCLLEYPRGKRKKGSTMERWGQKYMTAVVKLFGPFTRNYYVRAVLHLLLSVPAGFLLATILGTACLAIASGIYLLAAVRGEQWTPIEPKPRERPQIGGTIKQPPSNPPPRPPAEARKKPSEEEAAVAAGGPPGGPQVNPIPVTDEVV
The experiment in a line: NADPH oxidase assay in membrane fractions of PMA-stimulated neutrophils. The class given is biochemical. To be noted: final concentration of 33 µM of the test substance. How it is done: 3. Inhibition of myeloperoxidase The compounds according to the invention were tested for their action on human neutrophil myeloperoxidase activity by the established method of Bos, A.J. et al., Infection and Immunity, 1981, 32 (2), 427-431. 4. Xanthine oxidase assay Equal parts of the substrate (7.5 mM hypoxanthine) were incubated at 25°C with the compounds according to the invention or carrier, and 10⁻⁵ M luminol and the enzyme xanthine oxidase were added immediately before starting the luminescence measurement. The formation of superoxide was then measured for 140 sec in the 1251 luminometer. The activity was in each case measured against xanthine oxidase in the presence or absence of the compounds according to the invention by monitoring the growth of the absorption at 292 nm due to the formation of uric acid. 5. Determination of the specificity When neutrophils are activated by PMA or FMLP, they release the lysosomal enzyme beta-glucuronidase. […] Using a concentration of 10⁶ cells ml⁻¹, the compounds according to the invention were tested in parallel using a cell preparation thereof to gauge their capability to inhibit FMLP-induced superoxide production and FMLP-induced beta-glucuronidase release. 6. NADPH oxidase assay Neutrophils were stimulated with PMA and treated with ultrasound, and a membrane fraction was prepared. […]

The next experiment concerns mitochondrial fraction. The experiment in a line: Mitochondrial substrate oxidation assay (oxygen electrode). To be noted: NADPH oxidation by mitochondria, final concentration of 300 µM of the test substance, guinea pig hearts. The class given is biochemical. The protocol:
7. Mitochondrial substrate oxidation assay A mitochondrial fraction was prepared from finely-cut guinea pig hearts. […] The compounds according to the invention were tested to gauge their inhibition of cell respiration by measurement of their effect on the oxidation of these two substances at a concentration of up to 100 µg/ml⁻¹. % inhibition of NADPH oxidation by mitochondria at a final concentration of 300 µM of the test substance Table C

In experiment [1] the test system is polymorphonuclear granulocytes. The experiment in a line: FMLP-induced chemiluminescence of polymorphonuclear granulocytes (inhibition of FMLP-stimulated production of superoxide radical anions). The format is cell-based. To be noted: human PMN. The protocol: 1. Preparation of human PMN Blood was taken from healthy subjects by venous puncture and neutrophils were purified by dextran sedimentation and resuspended in the buffered medium. 2. Inhibition of FMLP-stimulated production of superoxide radical anions. Neutrophils (2.5 × 10⁵ ml⁻¹) were mixed with the compounds according to the invention in dimethyl sulphoxide (DMSO), the final concentration of the compounds according to the invention being 10 µM and the DMSO concentration being 1% v/v. After addition of luminol, final concentration about 10⁻⁵M and 33 µg/ml of cytochalasin B, the cells were stimulated with a final concentration of about 5 × 10⁻⁸ M FMLP. Measurement of the chemiluminescence peaks was carried out using an LKB 1251 luminometer. The inhibition of the superoxide and the reduction of cytochrome C by FMLP-stimulated cells was likewise measured. Neutrophils (2.6 × 10⁵ ml⁻¹) were mixed with the compounds according to the invention as in the chemiluminescence experiment. Cytochrome C with a concentration of […] is also present. The superoxide-dependent cytochrome C reduction was measured using a Molecular Devices Thermomax plate reader. The inhibition of superoxide production was calculated as follows: [formula] […]

In the case of `COc1ccc(C(=O)c2oc3ccccc3c2CSCCC(=O)O)cc1C(=O)O` [Example 31], on NADPH oxidase, testing at 33 µM gave an inhibition of 20%. Further, the “% inhibition (mitochondrial respiration)” value in the experiment on mitochondrial fraction is on record as 0 ± 7%.
Consider `COc1ccc(C(=O)c2oc3ccccc3c2CSCCC(=O)O)cc1C(=O)NS(=O)(=O)c1ccccc1C` [Example 17, 2-[4-Methoxy-3-(2-tolylsulphonamide-carbonyl)-benzoyl]-3-[(2-carboxyethyl)thiomethyl]benzo[b]furan], for which 10 µM produced 96 ± 2% inhibition in experiment [1] (10 µM of the test substance). Besides, the IC50 in experiment [1] (read-out: IC₅₀) turned out to be 700 nM. Also, the inhibition – broadly, the change of the read-out against control, counted positive when it falls – at 33 µM at NADPH oxidase turned out to be 21 ± 7%. Further, the “% inhibition (mitochondrial respiration)” value in the experiment with mitochondrial fraction was found to be 24 ± 2%.
